Laboratory results as given in article PMC11873758, “Lonidamine, a Novel Modulator for the BvgAS System of Bordetella Species” (Microbiology and Immunology, 2024).

Target: T1, VFT2 domain of BvgS (Bordetella pertussis, UniProt P16575)
T1 construct: His tag from pColdII (no GB1)
Assay: isothermal titration calorimetry
Format: binding
Conditions: 50 mM sodium phosphate, pH 7.4; 300 µM lonidamine into 20 µM VFT2

T1 sequence (P16575 290-541): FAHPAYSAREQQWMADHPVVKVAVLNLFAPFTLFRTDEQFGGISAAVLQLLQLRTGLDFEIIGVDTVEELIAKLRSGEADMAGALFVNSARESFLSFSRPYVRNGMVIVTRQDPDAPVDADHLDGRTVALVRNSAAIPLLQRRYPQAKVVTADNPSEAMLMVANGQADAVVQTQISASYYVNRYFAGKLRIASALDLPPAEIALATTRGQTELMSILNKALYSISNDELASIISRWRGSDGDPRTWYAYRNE

O=C(O)c1nn(Cc2ccc(Cl)cc2Cl)c2ccccc12 [#5, 1‐(2,4‐dichlorobenzyl)‐1H‐indazole‐3‐carboxylic acid]
isothermal titration calorimetry: ITC revealed that lonidamine bound to VFT2 but not VFT1
